Assay results as given in PMC3081360 (Journal of medicinal chemistry, 2011).

Target: brain NOP receptors (hypothalamus vs striatum) (Rattus norvegicus, UniProt P35370)
Assay: Ligand brain uptake in rat, ex vivo LC-MS/MS
Details: 3 μg/kg i.v., non-anesthetized, 10 min stated for (S)-10a

Sequence of brain NOP receptors (hypothalamus vs striatum) (P35370 whole entry): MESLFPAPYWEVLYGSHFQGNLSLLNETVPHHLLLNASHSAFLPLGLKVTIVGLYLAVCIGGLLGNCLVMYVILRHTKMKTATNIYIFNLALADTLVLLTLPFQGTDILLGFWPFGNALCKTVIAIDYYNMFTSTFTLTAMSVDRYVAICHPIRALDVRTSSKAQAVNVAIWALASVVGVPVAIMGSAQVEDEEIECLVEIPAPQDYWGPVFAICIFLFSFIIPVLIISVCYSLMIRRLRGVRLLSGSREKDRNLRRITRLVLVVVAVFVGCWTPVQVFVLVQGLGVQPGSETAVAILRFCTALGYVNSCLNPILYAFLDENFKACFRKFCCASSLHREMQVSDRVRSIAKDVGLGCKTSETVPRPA

SMILES	brain uptake
CC(C)N(C)C(=O)[C@@H](Cc1ccccc1F)CN1CCC2(CC1)OCCc1cc(F)sc12 [(S)-10a, (2S)-2-[(2-Fluorophenyl)methyl]-3-(2-fluorospiro[4,5-dihydrothieno[2,3-c]pyran-7,4'-piperidine]-1'-yl)-N-isopropyl-N-methyl-propanamide]	453 % SUV
CNC(=O)[C@@H](Cc1ccccc1F)CN1CCC2(CC1)OCCc1cc(F)sc12 [(S)-10c, (2S)-2-[(2-Fluorophenyl)methyl]-3-(2-fluorospiro[4,5-dihydrothieno[2,3-c]pyran-7,4'-piperidine]-1'-yl)-N-methyl-propanamide]	~ 280 % SUV
CNC(=O)[C@@H](Cc1ccccc1Cl)CN1CCC2(CC1)OCCc1cc(F)sc12 [(S)-10b, (2S)-2-[(2-Chlorophenyl)methyl]-3-(2-fluorospiro[4,5-dihydrothieno[2,3-c]pyran-7,4'-piperidine]-1'-yl)-N-methyl-propanamide]	~ 280 % SUV
